biological target: T1, Aryl hydrocarbon receptor (Homo sapiens, UniProt P35869); assay: Compound tested for its binding to human Orphan receptor (AhR); Active
T1 sequence (P35869 whole entry): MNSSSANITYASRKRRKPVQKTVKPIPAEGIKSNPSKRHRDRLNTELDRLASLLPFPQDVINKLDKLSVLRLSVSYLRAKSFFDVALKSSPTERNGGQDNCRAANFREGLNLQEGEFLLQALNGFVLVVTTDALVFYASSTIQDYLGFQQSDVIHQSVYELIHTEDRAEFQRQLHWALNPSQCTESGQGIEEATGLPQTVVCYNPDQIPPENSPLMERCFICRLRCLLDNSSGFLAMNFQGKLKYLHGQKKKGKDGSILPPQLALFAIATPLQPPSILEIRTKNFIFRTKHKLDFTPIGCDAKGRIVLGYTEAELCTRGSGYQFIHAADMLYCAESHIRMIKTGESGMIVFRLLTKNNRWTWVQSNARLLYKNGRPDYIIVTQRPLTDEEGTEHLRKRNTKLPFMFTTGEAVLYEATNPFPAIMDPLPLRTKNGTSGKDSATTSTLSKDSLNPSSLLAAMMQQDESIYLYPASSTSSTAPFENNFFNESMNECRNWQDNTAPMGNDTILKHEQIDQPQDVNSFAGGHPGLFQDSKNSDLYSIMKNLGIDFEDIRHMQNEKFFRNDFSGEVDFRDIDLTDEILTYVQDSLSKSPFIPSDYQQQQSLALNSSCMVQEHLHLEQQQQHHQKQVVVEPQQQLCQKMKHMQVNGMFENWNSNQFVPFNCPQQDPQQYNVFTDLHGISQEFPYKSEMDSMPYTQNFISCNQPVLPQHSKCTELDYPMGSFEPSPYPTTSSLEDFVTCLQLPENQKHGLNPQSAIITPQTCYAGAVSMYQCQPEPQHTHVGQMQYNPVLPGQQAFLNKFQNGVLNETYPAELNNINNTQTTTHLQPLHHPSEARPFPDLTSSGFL

Structure (SMILES)	Activity
O=c1cc(-c2ccccc2)oc2ccc3ccccc3c12 [BETA-NAPHTHOFLAVONE]	Active
c1ccc2c(c1)cc1ccc3cccc4ccc2c1c34 [BENZO[DEF]CHRYSENE]	Active
Clc1cc2c(cc1Cl)Oc1cc(Cl)c(Cl)cc1O2 [2,3,7,8-TETRACHLORODIBENZO-P-DIOXIN]	Active

— ChEMBL document CHEMBL1146684, “An electrochemical device for the assay of the interaction between a dioxin receptor and its various ligands” (Bioorg Med Chem Lett, 2004)
